# Measured values as given in US10946012B2, “Methods for inducing tumor regression, inhibiting tumor growth, and inducing apoptosis in breast tumors with geranylgeranyltransferase I inhibitors” (H. Lee Moffitt Cancer Center and Research Institute, Inc., priority 2009, dated 2021).
# pIC50: −log10 of the molar value.
# Legend:
# p27 = assay: Western blot / immunoprecipitation of p27 and prenylated proteins in MDA-MB-468 cells; type: cell-based, human; set-up: Rap1 geranylgeranylation / HDJ-2 farnesylation / processing / p27 protein levels: dose or concentration left out as unconfirmed
# Method: MDA-MB-468 cells were lysed using CelLytic™ M Cell Lysis Reagent (Sigma-Aldrich, St. Louis, Mo.) containing protease inhibitor cocktail, 2 mM phenylmethylsulfonylfluoride (PMSF), 2 mM Na3VO4, and 6.4 mg/ml p-nitrophenylphosphate (Sigma-Aldrich). Lysates were incubated overnight with p27 antibody (BD Biosciences, San Jose, Calif.) at 4° C. while rocking; after incubation protein A anti-IgG agarose beads were added and incubated for 2 h at 4° C., then washed four times with an excess of lysis buffer. Samples were then boiled at 100° C. for 10 min in 2×SDS-sample buffer and analyzed by Western blotting as described below.
# To prepare whole cell lysates, cells were trypsinized, washed with phosphate buffered saline (PBS) twice, and lysed in 30 mM Hepes, pH 7.5, 10 mM NaCl, 5 mM MgCl2, 25 mM NaF, 1 mM EGTA, 1% Triton-X-100, 10% glycerol, protease inhibitor cocktail, 2 mM PMSF, 2 mM Na3VO4, and 6.4 mg/ml p-nitrophenylphosphate. Lysates were cleared by centrifugation at 12,000×g for 15 min, and the supernatants were collected as whole cell extracts. The protein concentration was determined by the Bradford assay. Proteins were separated by SDS-PAGE and transferred to nitrocellulose membranes, which were then blotted with antibodies specific for whole Rap1 or unprenylated Rap1, Ras, the C-terminal region of pRb, Akt (Santa Cruz Biotechnology, Santa Cruz, Calif.), phospho-Akt(S473) (Cell Signaling, Danvers, Mass.), p27 (BD Biosciences, San Jose, Calif.), phospho-p27(T187) (Invitrogen, Carlsbad, Calif.), HDJ-2 (Lab Vision Corporation, Fremont, Calif.), phosphotyrosine (Millipore, Billerica, Mass.), and β-actin (Sigma-Aldrich, St. Louis, Mo.). Select bands were quantified using AlphaEaseFC densitometry software (AlphaInnotech, San Leandro, Calif.).
# [1] = tested on: MDA-MB-468 breast cancer cells; assay: Trypan Blue exclusion assay (proliferation, cell death) in MDA-MB-468 cells; type: cell-based, human
# Method: Human MDA-MB-468 and MDA-MB-231 breast cancer cells and murine NIH 3T3 cells were obtained from the ATCC and cultured in DMEM medium. Human SK-Br3 and BT-474 breast cancer cells (ATCC) were cultured in McCoy's 5a medium and Hybri-Care medium, respectively. Mouse embryonic fibroblast (MEF) cells from p27 wild-type and p27 null mice were grown in DMEM. All media were supplemented with 10% fetal calf serum, 10 units/ml penicillin, and 10 μg/ml streptomycin. Subconfluent cells were treated with different concentrations of GGTI, FTI or DMSO vehicle for specific time periods. After treatment, cells were harvested by trypsinization.
# Pre-designed siRNA to p27 (Cat #118714) and the negative control (Cat #4611) were purchased from Ambion (Austin, Tex.). Twenty-four hours before transfection, MDA-MB-468 cells were plated onto twelve-well plates in fresh DMEM medium containing 10% FBS and no antibiotics. Transient transfection of siRNA was carried out using Oligofectamine reagent (Invitrogen, Carlsbad, Calif.), following the manufacturer's instructions. In brief, 5 nM of p27 siRNA or control siRNA were mixed with Opti-MEM medium (Invitrogen) in such a way so that the total volume went to 90 μl, and then complexed with a mixture of 2 μl of Oligofectamine and 8 μl Opti-MEM; the total volume of RNA:Oligofectamine complex was 100 μl. The RNA:Oligofectamine complex was then incubated for 20 min at room temperature before adding to the cells. Before transfection, the old medium was discarded, cells were washed once with fresh Opti-MEM and 400 μl of fresh Opti-MEM placed into each well before adding the RNA:Oligofectamine complex to each well. The final diluted volume on each well was 500 μl. After 8 h, 500 μl DMEM containing 30% FBS was added to each well and cells were further incubated for 40 h.
# Adherent cells were harvested by trypsinization and diluted with 0.4% Trypan Blue dye and counted on a hemacytometer. Cells excluding the dye were scored as live cells, whereas cells absorbing the dye were scored as dead cells. Cell proliferation was determined by dividing the number of live cells in the treated sample by the number of live cells in the control, and the degree of cell death was expressed as percentage of dead cells of the total cell number.
smiles,measurement,setting,value
COC(=O)[C@H](CC(C)C)NC(=O)N1CCN(Cc2nc[nH]c2C)C(=O)[C@@H]1Cc1ccccc1 [GGTI-2417],increase of p27 Tyr phosphorylation,"p27; 50 μM, MDA-MB-468",3.5 fold
same,increase of p27 amounts (immunoprecipitated p27),"p27; 50 μM, MDA-MB-468",11.9 fold
same,HDJ-2 farnesylation / processing,"p27; MDA-MB-468, 48 h",not the farnesylation of HDJ-2
same,Rap1 geranylgeranylation,"p27; MDA-MB-468, 48 h",inhibited the geranylgeranylation of Rap1
same,p27 protein levels,"p27; MDA-MB-468, 48 h",increased p27 protein levels in a time-dependent manner
same,tumor cell death in the presence of p27 siRNA,"[1]; 5 nM p27 siRNA, 50 μM GGTI-2417 or 1 μM taxol",unable to induce tumor cell death
same,tumor cell death,"[1]; 50 μM, absence of p27 siRNA, vehicle 10.3%",37.2%
same,pIC50,"[1]; MDA-MB-468, 48 h, read-out: IC50, inhibition of cell proliferation",~5.40
